Test results as given in patent US7211576B2, “Diaminothiazoles” (Hoffmann-La Roche Inc., priority 2004, dated 2007).
Like-named read-outs stand apart in the source and are kept apart here.

Assays:
[1] = target: human cyclin D1-CDK4 (Homo sapiens, UniProt P11802); experiment: FlashPlate kinase assay, cyclin D1-CDK4; format: biochemical
Description: To determine inhibition of Cdk4, Cdk2 and Cdk1 activity, kinase assays were conducted using FlashPlate™ assays (NEN™-Life Science Products). FlashPlate assays were performed using recombinant human cyclin B-CDK1, human cyclin E-CDK2 or human cyclin D1-CDK4 complexes. GST-cyclinE (GST-cycE), CDK2, GST-cyclinB (GST-cycB), CDK1, GST-CDK4 and cyclin D1 (cycD1) cDNA clones in baculovirus vectors were provided by Dr. W. Harper at the Baylor College of Medicine, Houston, Tex.
(§1) The expression of the 62Kd protein was under the control of an IPTG inducible promoter in an M15 E. coli strain. Cells were lysed by sonication and purification was carried out by binding lysates at pH 8.0 to a Ni-chelated agarose column pretreated with 1 mM imidazole. The resin was then washed several times with incrementally decreasing pH buffers to pH 6.0, and eluted with 500 mM imidazole. Eluted protein was dialysed against 20 mM HEPES pH 7.5, 30% glycerol, 200 mM NaCl, and 1 mM DTT. Purified Rb fusion protein stocks were quantitated for protein concentration, aliquoted, and stored at −70° C.
(§2) For all three kinase assays reported herein, 96-well FlashPlates were coated with Rb protein at 10 μg/ml, using 100 μl per well. Plates were incubated at 4° C. overnight or at room temperature for 3 hours on a shaker. To control for nonspecific phosphorylation, one row of wells was coated with 100 μl/well coating buffer (20 mM HEPES, 0.2 M NaCl). Plates were then washed twice with wash buffer (0.01% Tween 20 in phosphate-buffered saline). Compounds to be tested (“test compounds”) were added to the wells at 5× final concentration. Reactions were initiated by immediate addition of 40 μl reaction mix (25 mM HEPES, 20 mM MgCl2, 0.002% Tween 20, 2 mM DTT, 1 μM ATP, 4 nM ^33P-ATP) and a sufficient amount of enzyme to give counts that were at least 10-fold above background. Plates were incubated at room temperature on a shaker for 30 minutes. Plates were washed four times with the wash buffer, sealed, and counted on the TopCount scintillation counter (Packard Instrument Co., Downers Grove, Ill.]. The percent inhibition of Rb phosphorylation, which is a measure of the inhibition of CDK activity, was determined according to the following formula:
[formula] where “test compound” refers to the average counts per minute of the test duplicates, “nonspecific” refers to the average counts per minute when no CyclinD/Cdk4, etc., was added, and “total” refers to the average counts per minute when no compound was added.

[2] = target: human cyclin B-CDK1 (Homo sapiens, UniProt P06493); experiment: FlashPlate kinase assay, cyclin B-CDK1; format: biochemical; settings: Rb protein substrate, 1 μM ATP, 33P-ATP, 30 minutes room temperature
Sequence of human cyclin B-CDK1 (P06493 whole entry): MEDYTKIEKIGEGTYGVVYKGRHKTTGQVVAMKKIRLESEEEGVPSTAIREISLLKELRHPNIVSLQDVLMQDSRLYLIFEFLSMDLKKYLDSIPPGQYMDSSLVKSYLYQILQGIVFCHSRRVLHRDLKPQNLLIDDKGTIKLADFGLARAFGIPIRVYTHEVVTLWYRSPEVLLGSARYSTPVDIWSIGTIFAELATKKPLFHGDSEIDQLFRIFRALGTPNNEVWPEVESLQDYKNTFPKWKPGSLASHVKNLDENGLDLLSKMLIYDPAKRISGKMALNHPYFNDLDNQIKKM
Sequence of human cyclin B-CDK1 (P14635 whole entry partner): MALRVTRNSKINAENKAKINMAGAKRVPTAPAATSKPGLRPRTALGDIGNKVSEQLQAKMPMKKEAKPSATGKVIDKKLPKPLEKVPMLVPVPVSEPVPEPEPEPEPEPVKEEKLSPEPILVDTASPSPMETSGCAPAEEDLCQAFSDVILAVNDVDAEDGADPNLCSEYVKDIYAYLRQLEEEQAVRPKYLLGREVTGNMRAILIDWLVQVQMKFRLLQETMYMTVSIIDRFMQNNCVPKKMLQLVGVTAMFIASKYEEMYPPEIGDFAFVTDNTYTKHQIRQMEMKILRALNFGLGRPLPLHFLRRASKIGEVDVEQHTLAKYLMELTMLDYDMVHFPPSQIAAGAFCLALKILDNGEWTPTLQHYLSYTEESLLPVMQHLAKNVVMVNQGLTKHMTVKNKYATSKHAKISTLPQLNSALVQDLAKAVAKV
Description: To determine inhibition of Cdk4, Cdk2 and Cdk1 activity, kinase assays were conducted using FlashPlate™ assays (NEN™-Life Science Products). FlashPlate assays were performed using recombinant human cyclin B-CDK1, human cyclin E-CDK2 or human cyclin D1-CDK4 complexes. GST-cyclinE (GST-cycE), CDK2, GST-cyclinB (GST-cycB), CDK1, GST-CDK4 and cyclin D1 (cycD1) cDNA clones in baculovirus vectors were provided by Dr. W. Harper at the Baylor College of Medicine, Houston, Tex. Proteins were co-expressed in High Five™ insect cells and the complex was purified on glutathione Sepharose resin (Pharmacia, Piscataway, N.J.) as previously described (Harper, J. W. et al. Cell 1993, 75, 805–816). A 6×-Histidine tagged truncated form of retinoblastoma (Rb) protein (amino acid 386–928) was used as the substrate for the cycD1-CDK4, cycB-CDK1 and the cycE-CDK2 assays (the expression plasmid was provided by Dr. Veronica Sullivan, Department of Molecular Virology, Roche Research Centre, Welwyn Garden City, United Kingdom). The Rb protein is a natural substrate for phosphorylation by CDK4, CDK2 and CDK1 (see Herwig and Strauss Eur. J. Biochem. Vol. 246 (1997) pp. 581–601 and the references cited therein).
as §1, §2
[formula] where “test compound” refers to the average counts per minute of the test duplicates, “nonspecific” refers to the average counts per minute when no CyclinD/Cdk4, etc., was added, and “total” refers to the average counts per minute when no compound was added. The IC50 value is the concentration of test compound that reduces by 50% the protein-kinase induced incorporation of the radiolabel under the test conditions described.

[3] = Rb protein substrate, 1 μM ATP, 33P-ATP, 30 minutes room temperature, read-out: CDK4 IC50

Sequence of human cyclin D1-CDK4 (P11802 whole entry): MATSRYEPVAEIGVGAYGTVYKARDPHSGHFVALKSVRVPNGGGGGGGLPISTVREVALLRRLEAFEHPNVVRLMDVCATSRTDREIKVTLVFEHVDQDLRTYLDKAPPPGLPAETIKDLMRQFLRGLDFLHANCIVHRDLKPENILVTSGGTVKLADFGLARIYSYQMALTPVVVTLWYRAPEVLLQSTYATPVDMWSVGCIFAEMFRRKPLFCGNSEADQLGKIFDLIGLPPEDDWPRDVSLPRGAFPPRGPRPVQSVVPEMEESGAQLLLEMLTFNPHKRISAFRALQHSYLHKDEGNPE
Sequence of human cyclin D1-CDK4 (P24385 whole entry partner): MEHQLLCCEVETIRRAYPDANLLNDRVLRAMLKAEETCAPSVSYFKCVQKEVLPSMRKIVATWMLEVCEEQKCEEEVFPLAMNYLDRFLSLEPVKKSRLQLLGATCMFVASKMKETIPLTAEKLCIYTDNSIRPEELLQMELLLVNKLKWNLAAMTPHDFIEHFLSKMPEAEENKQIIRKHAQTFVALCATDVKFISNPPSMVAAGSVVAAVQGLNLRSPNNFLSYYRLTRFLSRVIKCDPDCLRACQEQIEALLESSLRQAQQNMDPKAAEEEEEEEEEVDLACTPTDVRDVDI

Row | SMILES | IC50 [1, 3] [nM] | IC50 [2] [nM] | IC50 [1] [nM]
1 | N#Cc1ccc(C(=O)c2sc(Nc3ccc(N4CCC(N5CCCCC5)CC4)cc3)nc2N)cc1 [Example 55, 4-[4-Amino-2-(4-[1,4′]bipiperidinyl-1′-yl-phenylamino)-thiazole-5-carbonyl]-benzonitrile] | 370 |  | 
2 | Nc1nc(Nc2ccc(N3CCC(N4CCCC(O)C4)CC3)cc2)sc1C(=O)c1ccc(C(=O)O)cc1 (stereo not shown) [Example 79, 4-{4-Amino-2-[4-(3-hydroxy-[1,4′]bipiperidinyl-1′-yl)-phenylamino]-thiazole-5-carbonyl}-benzoic acid] | 400 |  | 
3 | Nc1nc(Nc2ccc(N3CCC(N4CCCC(O)C4)CC3)cc2)sc1C(=O)c1ccc(F)cc1 (stereo not shown) [Example 77, {4-Amino-2-[4-(3-hydroxy-[1,4′]bipiperidinyl-1′-yl)-phenylamino]-thiazol-5-yl}-(4-fluoro-phenyl)-methanone] | 111 |  | 
4 | Nc1nc(Nc2ccc(N3CCC(N4CCCC(O)C4)CC3)cc2)sc1C(=O)c1ccc([N+](=O)[O-])cc1 (stereo not shown) [Example 52, {4-Amino-2-[4-(3-hydroxy-[1,4′]bipiperidinyl-1′-yl)-phenylamino]-thiazol-5-yl}-(4-nitro-phenyl)-methanone] | 71 |  | 
5 | Nc1nc(Nc2ccc(N3CCC(N4CCCCC4)CC3)cc2)sc1C(=O)c1ccc(F)cc1 [Example 61, [4-Amino-2-(4-[1,4′]bipiperidinyl-1′-yl-phenylamino)-thiazol-5-yl]-(4-fluoro-phenyl)-methanone] | 71 |  | 
6 | N#Cc1ccc(C(=O)c2sc(Nc3ccc(N4CCC(N5CCCC5)CC4)cc3)nc2N)cc1 [Example 54, 4-{4-Amino-2-[4-(4-pyrrolidin-1-yl-piperidin-1-yl)-phenylamino]-thiazole-5-carbonyl}-benzonitrile] | 212 |  | 
7 | COc1ccc(C(=O)c2sc(Nc3ccc(N4CCC(N5CCOCC5)CC4)cc3)nc2N)cc1F [Example 100, {4-Amino-2-[4-(4-morpholin-4-yl-piperidin-1-yl)-phenylamino]-thiazol-5-yl}-(3-fluoro-4-methoxy-phenyl)-methanone] |  | 4170 | 90
8 | Nc1nc(Nc2ccc(N3CCC(N4CCCCC4)CC3)cc2)sc1C(=O)c1ccc([N+](=O)[O-])cc1 [Example 56, [4-Amino-2-(4-[1,4′]bipiperidinyl-1′-yl-phenylamino)-thiazol-5-yl]-(4-nitro-phenyl)-methanone] | 160 | 4770 | 
9 | Nc1nc(Nc2ccc(N3CCC(N4CCCC4)CC3)cc2)sc1C(=O)c1ccc([N+](=O)[O-])cc1 [Example 53, {4-Amino-2-[4-(4-pyrrolidin-1-yl-piperidin-1-yl)-phenylamino]-thiazol-5-yl}-(4-nitro-phenyl)-methanone] | 96 |  | 
10 | Nc1nc(Nc2ccc(N3CCC(N4CCOCC4)CC3)cc2)sc1C(=O)c1ccc2c(c1)OCO2 [Example 101, {4-Amino-2-[4-(4-morpholin-4-yl-piperidin-1-yl)-phenylamino]-thiazol-5-yl}-benzo[1,3]dioxol-5-yl-methanone] | 25 | 580 | 
11 | CN(C)C1CCN(c2ccc(Nc3nc(N)c(C(=O)c4ccc(Cl)cc4)s3)cc2)CC1 [Example 83, {4-Amino-2-[4-(4-dimethylamino-piperidin-1-yl)-phenylamino]-thiazol-5-yl}-(4-chloro-phenyl)-methanone] | 132 |  | 
12 | CN(C)C1CCN(c2ccc(Nc3nc(N)c(C(=O)c4ccc([N+](=O)[O-])cc4)s3)cc2)CC1 [Example 48, {4-Amino-2-[4-(4-dimethylamino-piperidin-1-yl)-phenylamino]-thiazol-5-yl}-(4-nitro-phenyl)-methanone] | 74 |  | 
13 | CN(C)C1CCN(c2ccc(Nc3nc(N)c(C(=O)c4ccc(F)cc4)s3)cc2)CC1 [Example 86, {4-Amino-2-[4-(4-dimethylamino-piperidin-1-yl)-phenylamino]-thiazol-5-yl}-(4-fluoro-phenyl)-methanone] | 114 |  | 
14 | Nc1nc(Nc2ccc(N3CCC(N4CCCC4)CC3)cc2)sc1C(=O)c1cc(F)cc(F)c1 [Example 66, {4-Amino-2-[4-(4-pyrrolidin-1-yl-piperidin-1-yl)-phenylamino]-thiazol-5-yl}-(3,5-difluoro-phenyl)-methanone] | 76 | 4020 | 
15 | Nc1nc(Nc2ccc(N3CCC(N4CCCCC4)CC3)cc2)sc1C(=O)c1ccc(Cl)c(Cl)c1 [Example 60, [4-Amino-2-(4-[1,4′]bipiperidinyl-1′-yl-phenylamino)-thiazol-5-yl]-(3,4-dichloro-phenyl)-methanone] | 90 | 5770 | 
16 | Nc1nc(Nc2ccc(N3CCC(N4CCCC(O)C4)CC3)cc2)sc1C(=O)c1ccc(Cl)cc1 (stereo not shown) [Example 74, {4-Amino-2-[4-(3-hydroxy-[1,4′]bipiperidinyl-1′-yl)-phenylamino]-thiazol-5-yl}-(4-chloro-phenyl)-methanone] | 62 |  | 
17 | Nc1nc(Nc2ccc(N3CCC(N4CCCCC4)CC3)cc2)sc1C(=O)c1ccc(C(=O)O)cc1 [Example 63] | 320 |  | 
18 | CN(C)C1CCN(c2ccc(Nc3nc(N)c(C(=O)c4ccc(O)c(C(N)=O)c4)s3)cc2)CC1 [Example 93, 5-{4-Amino-2-[4-(4-dimethylamino-piperidin-1-yl)-phenylamino]-thiazole-5-carbonyl}-2-hydroxy-benzamide] | 677 |  | 
19 | CN(C)C1CCN(c2ccc(Nc3nc(N)c(C(=O)c4ccc(C#N)cc4)s3)cc2)CC1 [Example 47, 4-{4-Amino-2-[4-(4-dimethylamino-piperidin-1-yl)-phenylamino]-thiazole-5-carbonyl}-benzonitrile] | 186 |  | 
20 | NC(=O)c1cc(C(=O)c2sc(Nc3ccc(N4CCC(N5CCCC5)CC4)cc3)nc2N)ccc1O [Example 94, 5-{4-Amino-2-[4-(4-pyrrolidin-1-yl-piperidin-1-yl)-phenylamino]-thiazole-5-carbonyl}-2-hydroxy-benzamide] | 390 |  | 
21 | Nc1nc(Nc2ccc(N3CCC(N4CCCC4)CC3)cc2)sc1C(=O)c1ccc(Cl)cc1 [Example 67, {4-Amino-2-[4-(4-pyrrolidin-1-yl-piperidin-1-yl)-phenylamino]-thiazol-5-yl}-(4-chloro-phenyl)-methanone] | 170 |  | 
22 | Cc1cccc(C(=O)c2sc(Nc3ccc(N4CCC(N5CCCC5)CC4)cc3)nc2N)c1 [Example 109, {4-Amino-2-[4-(4-pyrrolidin-1-yl-piperidin-1-yl)-phenylamino]-thiazol-5-yl}-tolyl-methanone] | 14 | 770 | 
23 | N#Cc1ccc(C(=O)c2sc(Nc3ccc(N4CCC(N5CCCC(O)C5)CC4)cc3)nc2N)cc1 (stereo not shown) [Example 51, 4-{4-Amino-2-[4-(3-hydroxy-[1,4′]bipiperidinyl-1′-yl)-phenylamino]-thiazole-5-carbonyl}-benzonitrile] | 230 |  | 
24 | Nc1nc(Nc2ccc(N3CCC(N4CCCC4)CC3)cc2)sc1C(=O)c1ccc(F)cc1 [Example 70, {4-Amino-2-[4-(4-pyrrolidin-1-yl-piperidin-1-yl)-phenylamino]-thiazol-5-yl}-(4-fluoro-phenyl)-methanone] | 186 |  | 
25 | Nc1nc(Nc2ccc(N3CCC(N4CCCCC4)CC3)cc2)sc1C(=O)c1ccc(Cl)cc1 [Example 58, [4-Amino-2-(4-[1,4′]bipiperidinyl-1′-yl-phenylamino)-thiazol-5-yl]-(4-chloro-phenyl)-methanone] | 45 |  | 
